According to patent US9150543B2, “Substituted indolyl alkyl amino derivatives as inhibitors of histone deacetylase” (Janssen Pharmaceutica N. V., priority 2004, dated 2015):
Values after ≈ are worked out from the molar mass of the structure shown.

Key:
[1] = tested on: A2780 ovarian carcinoma cells; assay: Antiproliferative activity on A2780 cells, MTT (C.2); assay type: cell-based; conditions: Homo sapiens, 96 h, four days of incubation, read-out: Cellular activity pIC50 C.2 (converted)
Procedure: All compounds tested were dissolved in DMSO and further dilutions were made in culture medium. Final DMSO concentrations never exceeded 0.1% (v/v) in cell proliferation assays. Controls contained A2780 cells and DMSO without compound and blanks contained DMSO but no cells. MTT was dissolved at 5 mg/ml in PBS. A glycine buffer comprised of 0.1 M glycine and 0.1 M NaCl buffered to pH 10.5 with NaOH (1N) was prepared (all reagents were from Merck).
The human A2780 ovarian carcinoma cells (a kind gift from Dr. T. C. Hamilton [Fox Chase Cancer Centre, Pennsylvania, USA]) were cultured in RPMI 1640 medium supplemented with 2 mM L-glutamine, 50 μg/ml gentamicin and 10% fetal calf serum. Cells were routinely kept as monolayer cultures at 37° C. in a humidified 5% CO2 atmosphere. Cells were passaged once a week using a trypsin/EDTA solution at a split ratio of 1:40. All media and supplements were obtained from Life Technologies. Cells were free of mycoplasma contamination as determined using the Gen-Probe Mycoplasma Tissue Culture kit (supplier: BioMerieux).
Cells were seeded in NUNC™ 96-well culture plates (Supplier: Life Technologies) and allowed to adhere to the plastic overnight. Densities used for plating were 1500 cells per well in a total volume of 200 μl medium. After cell adhesion to the plates, medium was changed and drugs and/or solvents were added to a final volume of 200 μl. Following four days of incubation, medium was replaced by 200 μl fresh medium and cell density and viability was assessed using an MTT-based assay. To each well, 25 μl MTT solution was added and the cells were further incubated for 2 hours at 37° C. The medium was then carefully aspirated and the blue MTT-formazan product was solubilized by addition of 25 μl glycine buffer followed by 100 μl of DMSO. […] Within an experiment, the results for each experimental condition are the mean of 3 replicate wells. For initial screening purposes, compounds were tested at a single fixed concentration of 10^−6 M. For active compounds, the experiments were repeated to establish full concentration-response curves. For each experiment, controls (containing no drug) and a blank incubation (containing no cells or drugs) were run in parallel. The blank value was subtracted from all control and sample values. For each sample, the mean value for cell growth (in absorbance units) was expressed as a percentage of the mean value for cell growth of the control. […] Herein the effects of test compounds are expressed as pIC50 (the negative log value of the IC50-value)(see Table F-3).

[2] = biological target: histone deacetylase (HeLa nuclear extracts); assay: In vitro assay for inhibition of histone deacetylase with fluorescent-labelled substrate (C.1.b); assay type: biochemical; conditions: Fluor de Lys substrate
Procedure: The HDAC Fluorescent Activity Assay/Drug Discovery Kit of Biomol (cat.No: AK-500-0001) was used. The HDAC Fluorescent Activity Assay is based on the Fluor de Lys (Fluorogenic Histone deAcetylase Lysyl) substrate and developer combination. The Fluor de Lys substrate, comprises an acetylated lysine side chain. Deacetylation of the substrate sensitizes the substrate so that, in the second step, treatment with the Fluor de Lys developer produces a fluorophore.
After 30 min, 1 volume of the developer was added. […] For each experiment, controls (containing HeLa nuclear extract and buffer), a blank incubation (containing buffer but no HeLa nuclear extract) and samples (containing compound dissolved in DMSO and further diluted in buffer and HeLa nuclear extract) were run in parallel. In first instance, compounds were tested at a concentration of 10^−5M. […] All sample were tested 4 times. In each test the blank value was subtracted from both the control and the sample values. The control sample represented 100% of substrate deactylation. For each sample the fluorescence was expressed as a percentage of the mean value of the controls. […] Herein the effects of test compounds are expressed as pIC50 (the negative log value of the IC50-value) (see Table F-3).

[3] = Solubility/stability at different pH's, chemiluminescent nitrogen detector (C.3.b); assay type: physicochemical; conditions: aqueous buffer; pH = 2.3
From the text: In a second method the solubility of a compound at different pH's can be measured with the use of a Chemiluminescent Nitrogen Detector (see example C.3.b).
The solubility of a compound, at different pH's, can also be measured with the use of a chemiluminescent nitrogen detector. (see Table F-3).

| SMILES | IC50 [1] | Enzymatic activity pIC50 C.1.b [2] | solubility [3] |
| --- | --- | --- | --- |
| CCC(=O)N(CCc1cn(C)c2cc(OC)ccc12)CC1CCN(c2ncc(C(=O)NO)cn2)CC1 [Compound 71] | 316 nM | 7.5 |  |
| Cc1[nH]c2ccccc2c1CCNC1CCN(c2ncc(C(=O)NO)cn2)CC1 [Compound 29] | 126 nM | 7.9 |  |
| Cn1cc(CNCC2CCN(c3ncc(C(=O)NO)cn3)CC2)c2ccc(F)cc21 [Compound 81] | 31.6 nM | 8.9 |  |
| Cn1cc(CNCC2CCN(c3ncc(C(=O)NO)cn3)CC2)c2ccccc21 [Compound 1a] | 6.31 nM |  | 1400 µg/mL (≈ 3.55 mM) |
| COc1ccc2c(c1)c(CCNCC1CCN(c3ncc(C(=O)NO)cn3)CC1)cn2C [Compound 74] | 79.4 nM | 8.2 |  |
| CC(=O)N(Cc1cn(C)c2ccccc12)CC1CCN(c2ncc(C(=O)NO)cn2)CC1 [Compound 72] | 158 nM | 7.9 |  |
| Cn1cc(CNCC2CCN(c3ncc(C(=O)NO)cn3)CC2)c2cc([N+](=O)[O-])ccc21 [Compound 18] | 10 nM | 8.3 |  |
| O=C(NO)c1cnc(N2CCC(CNCc3cn(CC4CC4)c4ccccc34)CC2)nc1 [Compound 48] | 6.31 nM | >9.0 |  |
| Cn1cc(CNCC2CCN(c3ncc(C(=O)NO)cn3)CC2)c2c(Cl)cccc21 [Compound 58] | 1580 nM | 10.0 |  |
| CC(C)n1cc(CNCC2CCN(c3ncc(C(=O)NO)cn3)CC2)c2ccccc21 [Compound 53] | 10 nM | 10.0 |  |
| CCn1cc(CNCC2CCN(c3ncc(C(=O)NO)cn3)CC2)c2ccccc21 [Compound 34] | 31.6 nM | 8.4 |  |
| Cn1cc(CNCC2CCN(c3ncc(C(=O)NO)cn3)CC2)c2cc(F)ccc21 [Compound 51] | 10 nM | 9.8 |  |
| O=C(NO)c1cnc(N2CCC(CNCc3cn(C4CCCC4)c4ccccc34)CC2)nc1 [Compound 46] | 10 nM | 9.0 |  |
| O=C(NO)c1cnc(N2CCC(CNCc3cc4ccccc4s3)CC2)nc1 [Compound 9] | 79.4 nM | 8.3 |  |
| O=C(NO)c1cnc(N2CCC(CNCc3cccc4cc[nH]c34)CC2)nc1 [Compound 63] | 31.6 nM | >9.0 |  |
| O=C(NO)c1cnc(N2CCC(CNCc3c[nH]c4ccc(F)cc34)CC2)nc1 [Compound 13] | 31.6 nM | 6.0 |  |
| CCN(CCc1cn(C)c2cc(OC)ccc12)CC1CCN(c2ncc(C(=O)NO)cn2)CC1 [Compound 73] | 79.4 nM | 7.9 |  |
| CCn1cc(CNCC2CCN(c3ncc(C(=O)NO)cn3)CC2)c2ccc(OC)cc21 [Compound 61] | 25.1 nM | 8.9 |  |
| Cc1ccc2[nH]cc(CNCC3CCN(c4ncc(C(=O)NO)cn4)CC3)c2c1 [Compound 12] | 79.4 nM | 8.2 |  |
| Cc1cccc2c(CNCC3CCN(c4ncc(C(=O)NO)cn4)CC3)cn(C)c12 [Compound 37] | 31.6 nM | 8.6 |  |

| SMILES | IC50 [1] | Enzymatic activity pIC50 C.1.b [2] | solubility [3] |
| --- | --- | --- | --- |
| Cc1[nH]c2ccccc2c1CCNCC1CCN(c2ncc(C(=O)NO)cn2)CC1 [Compound 76] | 200 nM | 7.8 |  |
| CCC(=O)N(CCc1cn(C)c2ccc(Cl)cc12)CC1CCN(c2ncc(C(=O)NO)cn2)CC1 [Compound 69] | 200 nM | 7.6 |  |
| Cc1cccc2c1c(CNCC1CCN(c3ncc(C(=O)NO)cn3)CC1)cn2C [Compound 38] | 31.6 nM | >9.0 |  |
| CCCn1cc(CNCC2CCN(c3ncc(C(=O)NO)cn3)CC2)c2ccccc21 [Compound 62] | 10 nM | 9.5 |  |
| CCC(CC)n1cc(CNCC2CCN(c3ncc(C(=O)NO)cn3)CC2)c2ccccc21 [Compound 40] | 31.6 nM | 8.5 |  |
| COc1ccc2[nH]cc(CNCC3CCN(c4ncc(C(=O)NO)cn4)CC3)c2c1 [Compound 16] | 79.4 nM | 8.6 |  |
| Cn1cc(CNCC2CCN(c3ccc(C(=O)NO)cn3)CC2)c2ccccc21 [Compound 80] | 79.4 nM | 7.8 |  |
| CCCn1cc(CNCC2CCN(c3ncc(C(=O)NO)cn3)CC2)c2ccc(Cl)cc21 [Compound 41] | 1580 nM | 8.4 |  |
| CCCn1cc(CCNCC2CCN(c3ncc(C(=O)NO)cn3)CC2)c2ccc(OC)cc21 [Compound 75] | 79.4 nM | 7.3 |  |
| CCCn1cc(CCNCC2CCN(c3ncc(C(=O)NO)cn3)CC2)c2ccccc21 [Compound 31] | 39.8 nM | 8.2 |  |
| Cn1cc(CNCC2CCN(c3ncc(C(=O)NO)cn3)CC2)c2ccc(Cl)cc21 [Compound 56] | 25.1 nM | 9.2 |  |
| O=C(NO)c1cnc(N2CCC(CNCc3c[nH]c4ccc(Br)cc34)CC2)nc1 [Compound 15] | 31.6 nM | 8.5 |  |
| Cc1ccc2c(c1)c(CNCC1CCN(c3ncc(C(=O)NO)cn3)CC1)c(C)n2C [Compound 42] | 31.6 nM | 8.3 |  |
| O=C(NO)c1cnc(N2CCC(CNCCc3c[nH]c4ccc(Cl)cc34)CC2)nc1 [Compound 17] | 158 nM | 7.8 |  |
| CCCn1cc(CNCC2CCN(c3ncc(C(=O)NO)cn3)CC2)c2cc(F)ccc21 [Compound 52] | 7.94 nM | 10.3 |  |
| CCC(=O)N(CCc1cn(C)c2ccccc12)CC1CCN(c2ncc(C(=O)NO)cn2)CC1 [Compound 70] | 158 nM | 8.5 |  |
| Cn1cc(CNCC2CCN(c3ncc(C(=O)NO)cn3)CC2)c2cc3c(cc21)OCO3 [Compound 59] | 20 nM | 9.0 |  |
| O=C(NO)c1cnc(N2CCC(CNCc3cn(Cc4ccccc4)c4ccccc34)CC2)nc1 [Compound 54] | 12.6 nM | 10.2 |  |
| Cc1[nH]c2ccccc2c1CNCC1CCN(c2ncc(C(=O)NO)cn2)CC1 [Compound 35] | 200 nM | 8.2 |  |
| O=C(NO)c1cnc(N2CCC(CNCc3cccc4[nH]ccc34)CC2)nc1 [Compound 64] | 15.8 nM | 8.9 |  |
